In one data set the target is NaV1.5 (Homo sapiens (Human), UniProt Q14524). Description: Sodium Influx Assay (Flux), NaV1.5. The following applies: read-out: Flux NaV1.5 IC50; Trex HEK293 cells, ANG2 dye; arithmetic mean.
The target of another data set is NaV1.6 (Homo sapiens (Human), UniProt Q9UQD0). The data set is described as follows: Sodium Influx Assay (Flux), NaV1.6. Conditions: read-out: Flux NaV1.6 IC50; Trex HEK293 cells, ANG2 dye; arithmetic mean.
In the next data set the target is NaV1.1 (Homo sapiens (Human), UniProt P35498). The data set is described as follows: Sodium Influx Assay (Flux), NaV1.1. It is filed as cell-based. Conditions: Trex HEK293 cells, ANG2 dye; arithmetic mean.

The results in this text go back to patent publication US10246453B2, “Benzenesulfonamide compounds and their use as therapeutic agents” (Xenon Pharmaceuticals Inc., priority 2016, dated 2019).

For orientation: IC50 means the concentration needed to halve the response being measured.

Where a name gives a salt, the structure may show the parent alone.

Chain of NaV1.5 (Q14524 other isoform, or with tags, fused parts or gaps): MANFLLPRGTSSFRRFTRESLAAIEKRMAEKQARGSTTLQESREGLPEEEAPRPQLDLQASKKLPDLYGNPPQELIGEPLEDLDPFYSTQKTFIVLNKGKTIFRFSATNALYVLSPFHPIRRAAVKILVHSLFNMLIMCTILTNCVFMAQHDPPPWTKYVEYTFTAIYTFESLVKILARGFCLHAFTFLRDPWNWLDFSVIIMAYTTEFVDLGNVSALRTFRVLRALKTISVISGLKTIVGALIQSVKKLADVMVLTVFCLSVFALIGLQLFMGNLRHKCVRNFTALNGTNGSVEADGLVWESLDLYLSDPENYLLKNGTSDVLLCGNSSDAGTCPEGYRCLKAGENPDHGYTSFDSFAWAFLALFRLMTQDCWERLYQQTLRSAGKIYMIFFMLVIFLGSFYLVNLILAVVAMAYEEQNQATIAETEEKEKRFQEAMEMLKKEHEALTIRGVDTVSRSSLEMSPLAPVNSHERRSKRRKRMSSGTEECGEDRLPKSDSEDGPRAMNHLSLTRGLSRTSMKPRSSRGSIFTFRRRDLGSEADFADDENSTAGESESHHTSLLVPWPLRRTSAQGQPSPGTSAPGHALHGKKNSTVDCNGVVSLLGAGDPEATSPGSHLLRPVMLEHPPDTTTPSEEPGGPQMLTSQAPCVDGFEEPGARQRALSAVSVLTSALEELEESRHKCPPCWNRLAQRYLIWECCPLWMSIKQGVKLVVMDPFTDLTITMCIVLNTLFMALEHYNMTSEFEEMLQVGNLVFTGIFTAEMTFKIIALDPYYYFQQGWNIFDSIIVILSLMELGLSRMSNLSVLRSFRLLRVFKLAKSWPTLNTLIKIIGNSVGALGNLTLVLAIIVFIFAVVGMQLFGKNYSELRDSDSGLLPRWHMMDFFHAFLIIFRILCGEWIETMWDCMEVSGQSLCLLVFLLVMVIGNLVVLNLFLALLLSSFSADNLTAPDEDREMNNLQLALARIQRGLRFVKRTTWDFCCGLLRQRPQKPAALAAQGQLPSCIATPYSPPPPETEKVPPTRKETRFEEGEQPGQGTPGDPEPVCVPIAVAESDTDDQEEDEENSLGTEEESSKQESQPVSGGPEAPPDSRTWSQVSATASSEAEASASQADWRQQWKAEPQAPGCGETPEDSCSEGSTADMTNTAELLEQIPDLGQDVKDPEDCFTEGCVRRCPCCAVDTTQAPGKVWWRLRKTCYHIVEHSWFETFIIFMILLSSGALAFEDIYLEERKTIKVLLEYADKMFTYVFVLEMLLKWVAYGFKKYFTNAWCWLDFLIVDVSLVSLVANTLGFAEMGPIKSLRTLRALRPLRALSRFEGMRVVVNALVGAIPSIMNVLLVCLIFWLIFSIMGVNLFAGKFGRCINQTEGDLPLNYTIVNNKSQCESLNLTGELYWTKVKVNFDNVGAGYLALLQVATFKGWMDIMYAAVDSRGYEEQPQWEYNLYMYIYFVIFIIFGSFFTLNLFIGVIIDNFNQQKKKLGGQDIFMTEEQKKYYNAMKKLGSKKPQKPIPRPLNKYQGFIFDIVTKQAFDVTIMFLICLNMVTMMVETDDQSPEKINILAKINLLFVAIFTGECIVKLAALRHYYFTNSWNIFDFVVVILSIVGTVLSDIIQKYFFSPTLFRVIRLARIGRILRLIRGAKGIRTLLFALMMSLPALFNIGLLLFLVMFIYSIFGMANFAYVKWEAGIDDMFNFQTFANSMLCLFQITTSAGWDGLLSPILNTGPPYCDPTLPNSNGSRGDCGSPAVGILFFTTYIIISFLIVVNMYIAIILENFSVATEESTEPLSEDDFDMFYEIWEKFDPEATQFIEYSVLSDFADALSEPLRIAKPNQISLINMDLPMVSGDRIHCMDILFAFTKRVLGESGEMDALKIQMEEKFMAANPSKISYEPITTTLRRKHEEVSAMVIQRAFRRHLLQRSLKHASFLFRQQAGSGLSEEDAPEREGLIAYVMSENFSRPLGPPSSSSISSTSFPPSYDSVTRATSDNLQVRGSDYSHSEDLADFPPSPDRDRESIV

On to `CN(c1cc(F)c(S(=O)(=O)Nc2cscn2)cc1Cl)[C@H]1CCN(C2Cc3ccccc3C2)C1` [Example 166, (S)-5-chloro-4-((1-(2,3-dihydro-1H-inden-2-yl)pyrrolidin-3-yl)(methyl)amino)-2-fluoro-N-(thiazol-4-yl)benzene-sulfonamide formate], for which the IC50 at NaV1.5 came to 10.1 µM; at NaV1.6, 3.67 µM; against NaV1.1, 7.79 µM.

Turning to `COc1cccnc1CN1CC[C@H](N(C)c2cc(F)c(S(=O)(=O)Nc3cscn3)cc2C)C1` [Example 120, (S)-2-fluoro-4-((1-((3-methoxypyridin-2-yl)methyl)pyrrolidin-3-yl)(methyl)amino)-5-methyl-N-(thiazol-4-yl)benzenesulfonamide formate], the values for the IC50 at NaV1.5, at NaV1.6 and against NaV1.1 were 22.9 µM, 0.39 µM and > 30 µM, respectively.

Turning to `Cc1ccc(CN2CCC(Oc3ccc(S(=O)(=O)Nc4nccs4)cc3Cl)CC2)cc1C` [Example 93, 3-chloro-4-(1-(3,4-dimethylbenzyl)piperidin-4-yloxy)-N-(thiazol-2-yl)benzenesulfonamide], the half-maximal inhibitory concentration (IC50) was 12.5 µM on NaV1.5, 3.62 µM at NaV1.6 and 12.6 µM against NaV1.1.

Take `Cc1cc(S(=O)(=O)Nc2cccc(F)n2)c(F)cc1N(C)[C@H]1CCN(Cc2ccccc2)C1` [Example 308, (S)-4-((1-benzylpyrrolidin-3-yl)(methyl)amino)-2-fluoro-N-(6-fluoropyridin-2-yl)-5-methylbenzenesulfonamide]: the IC50 was > 30 µM on NaV1.5, 1.47 µM on NaV1.6 and 24.7 µM against NaV1.1.

Consider `CN(c1cc(F)c(S(=O)(=O)Nc2cscn2)cc1Cl)[C@@H]1CN(Cc2ccccc2)CC12CC2` [Example 265, (S)-4-((5-benzyl-5-azaspiro[2.4]heptan-7-yl)(methyl)amino)-5-chloro-2-fluoro-N-(thiazol-4-yl)benzenesulfonamide 2,2,2-trifluoroacetate], for which the figures for the IC50 on NaV1.5, on NaV1.6 and against NaV1.1 were 6.8 µM, 4.79 µM and 6.35 µM, respectively.

Consider `Cc1cc(S(=O)(=O)Nc2cscn2)c(F)cc1N(C)[C@H]1CCN(Cc2cc3n(n2)CCCC3)C1` [Example 151, (S)-2-fluoro-5-methyl-4-(methyl(1-((4,5,6,7-tetrahydropyrazolo[1,5-a]pyridin-2-yl)methyl)pyrrolidin-3-yl)amino)-N-(thiazol-4-yl)benzenesulfonamide], for which the results for the IC50 at NaV1.5, at NaV1.6 and on NaV1.1 were > 30 µM, 0.41 µM and > 30 µM, respectively.

For `Cc1cc(S(=O)(=O)Nc2cscn2)c(F)cc1N(C)[C@H]1CCN(Cc2nc(C3CC3)cs2)C1` [Example 134, (S)-4-((1-((4-cyclopropylthiazol-2-yl)methyl)pyrrolidin-3-yl)(methyl)amino)-2-fluoro-5-methyl-N-(thiazol-4-yl)benzenesulfonamide], the concentration for half-maximal inhibition (IC50) at NaV1.5 was > 30 µM; at NaV1.6, 0.412 µM; on NaV1.1, 12.1 µM.

Turning to `O=S(=O)(Nc1ncns1)c1ccc(O[C@@H]2CCN(Cc3ccccc3)C2)c(Cl)c1` [Example 96, (R)-4-(1-benzylpyrrolidin-3-yloxy)-3-chloro-N-(1,2,4-thiadiazol-5-yl)benzenesulfonamide 2,2,2-trifluoroacetate], the IC50 was > 30 µM at NaV1.5, 11.9 µM at NaV1.6 and 25.7 µM at NaV1.1.

As to `CN(c1cc(F)c(S(=O)(=O)Nc2cscn2)cc1Cl)[C@H]1CCN(Cc2ncc3ccccn23)C1` [Example 184, (S)-5-chloro-2-fluoro-4-((1-(imidazo[1,5-a]pyridin-3-ylmethyl)pyrrolidin-3-yl)(methyl)amino)-N-(thiazol-4-yl)benzene-sulfonamide], the IC50 was > 30 µM on NaV1.5, 5.38 µM at NaV1.6 and > 30 µM at NaV1.1.

For `CN(c1cc(F)c(S(=O)(=O)Nc2cscn2)cc1Cl)[C@H]1CCN(Cc2cccc(C(C)(C)O)c2)C1` [Example 161, (S)-5-chloro-2-fluoro-4-((1-(3-(2-hydroxypropan-2-yl)benzyl)pyrrolidin-3-yl)(methyl)amino)-N-(thiazol-4-yl)benzenesulfonamide formate], the IC50 was > 30 µM on NaV1.5, 4.85 µM at NaV1.6 and 26 µM against NaV1.1.

For the compound `Cc1cc(S(=O)(=O)Nc2cscn2)c(F)cc1N(C)[C@H]1CCN(Cc2ccccc2C(F)F)C1` [Example 112, (S)-4-((1-(2-(difluoromethyl)benzyl)-pyrrolidin-3-yl)(methyl)amino)-2-fluoro-5-methyl-N-(thiazol-4-yl)benzenesulfonamide], the IC50 at NaV1.5 stood at 8.19 µM; at NaV1.6 it was 0.773 µM; against NaV1.1, 4.6 µM.

In the case of `CN(c1cc(F)c(S(=O)(=O)Nc2cscn2)cc1Cl)[C@H]1CCN(CCOCc2ccccc2)C1` [Example 200, (S)-4-((1-(2-(benzyloxy)ethyl)pyrrolidin-3-yl)(methyl)amino)-5-chloro-2-fluoro-N-(thiazol-4-yl)benzenesulfonamide], the IC50 at NaV1.5 was found to be 7.21 µM; on NaV1.6, 4.62 µM; against NaV1.1 it was 4.97 µM.

With `CCc1c(O[C@H]2CCN(Cc3ccccc3)C2)cc(F)c(S(=O)(=O)Nc2cscn2)c1F` [Example 276, (S)-4-((1-benzylpyrrolidin-3-yl)oxy)-3-ethyl-2,6-difluoro-N-(thiazol-4-yl)benzenesulfonamide 2,2,2-trifluoroacetate], the concentration for half-maximal inhibition (IC50) was determined as 17.9 µM at NaV1.5, 0.566 µM on NaV1.6 and 18.7 µM against NaV1.1.

For the compound `CN(c1cc(F)c(S(=O)(=O)Nc2cscn2)cc1Cl)[C@H]1CCN(Cc2cccc(C(F)(F)F)c2)C1` [Example 214, (S)-5-chloro-2-fluoro-4-(methyl(1-(3-(trifluoromethyl)benzyl)pyrrolidin-3-yl)amino)-N-(thiazol-4-yl)benzenesulfonamide], the IC50 came out at 5.54 µM at NaV1.5, 1.79 µM on NaV1.6 and 2.94 µM on NaV1.1.

As to `Cc1c(N(C)[C@H]2CCN(Cc3cc(F)ccc3F)C2)ccc(S(=O)(=O)Nc2cscn2)c1F` [Example 322, (S)-4-((1-(2,5-difluorobenzyl)-pyrrolidin-3-yl)(methyl)amino)-2-fluoro-3-methyl-N-(thiazol-4-yl)benzenesulfonamide 2,2,2-trifluoroacetate], the IC50 on NaV1.5 turned out to be 7.35 µM; at NaV1.6 it was 0.237 µM; against NaV1.1, 6.02 µM.

With `Cc1ccccc1CN1CCC(Oc2ccc(S(=O)(=O)Nc3nccs3)cc2Cl)CC1` [Example 91, 3-chloro-4-(1-(2-methylbenzyl)piperidin-4-yloxy)-N-(thiazol-2-yl)benzenesulfonamide], the IC50 at NaV1.5 amounted to 6.94 µM; on NaV1.6 it was 1.2 µM; at NaV1.1, 7.2 µM.

For the compound `Cc1c(F)cccc1CN1CC[C@H](N(C)c2cc(F)c(S(=O)(=O)Nc3cscn3)cc2Cl)C1` [Example 220, (S)-5-chloro-2-fluoro-4-((1-(3-fluoro-2-methylbenzyl)pyrrolidin-3-yl)(methyl)amino)-N-(thiazol-4-yl)benzenesulfonamide], the results for the IC50 on NaV1.5, on NaV1.6 and against NaV1.1 were 8.19 µM, 3.69 µM and 5.84 µM, respectively.

In the case of `O=S(=O)(Nc1nccs1)c1ccc(O[C@H]2C[C@H]3CC[C@@H](C2)N3Cc2ccccc2)c(Cl)c1` [Example 15, 4-(((1R,3r,5S)-8-benzyl-8-azabicyclo[3.2.1]octan-3-yl)oxy)-3-chloro-N-(thiazol-2-yl)benzenesulfonamide], the IC50 at NaV1.5 is 23.9 µM; on NaV1.6 it was 2.57 µM; at NaV1.1, 9.23 µM.

In the case of `CN(c1ccc(S(=O)(=O)Nc2cscn2)c(F)c1Cl)[C@H]1CCN(Cc2ccccc2)C1` [Example 328, (S)-4-((1-benzylpyrrolidin-3-yl)(methyl)amino)-3-chloro-2-fluoro-N-(thiazol-4-yl)benzenesulfonamide 2,2,2-trifluoroacetate], the IC50 on NaV1.5 stood at 18.3 µM; at NaV1.6, 0.786 µM; on NaV1.1, 16.3 µM.

On to `O=S(=O)(Nc1nccs1)c1ccc(OC2CCN(Cc3cccc(Cl)c3)CC2)c(Cl)c1` [Example 85, 3-chloro-4-(1-(3-chlorobenzyl)piperidin-4-yloxy)-N-(thiazol-2-yl)benzenesulfonamide], for which the results for the IC50 at NaV1.5, on NaV1.6 and against NaV1.1 were 5.71 µM, 0.353 µM and 8.7 µM, respectively.

As to `CCc1cc(S(=O)(=O)Nc2cscn2)c(F)cc1N(C)[C@H]1CCN(Cc2ccccc2)C1` [Example 290, (S)-4-((1-benzylpyrrolidin-3-yl)(methyl)amino)-5-ethyl-2-fluoro-N-(thiazol-4-yl)benzenesulfonamide 2,2,2-trifluoroacetate], the concentration for half-maximal inhibition (IC50) is 5.3 µM at NaV1.5, 1.79 µM on NaV1.6 and 6.24 µM against NaV1.1.

On to `C[C@H](c1ccccc1)N1CCC(Oc2ccc(S(=O)(=O)Nc3cscn3)c(F)c2Cl)CC1` [Example 227, (R)-3-chloro-2-fluoro-4-((1-(1-phenylethyl)piperidin-4-yl)oxy)-N-(thiazol-4-yl)benzenesulfonamide formate], for which the half-inhibitory concentration (IC50) on NaV1.5 is > 30 µM; at NaV1.6, 0.855 µM; at NaV1.1, > 30 µM.

In the case of `Cc1cc(S(=O)(=O)Nc2cscn2)c(F)cc1N(C)[C@H]1CCN(Cc2csc(C(C)C)n2)C1` [Example 107, (S)-2-fluoro-4-((1-((2-isopropylthiazol-4-yl)methyl)pyrrolidin-3-yl)(methyl)amino)-5-methyl-N-(thiazol-4-yl)benzenesulfonamide 2,2,2-trifluoroacetate], the figures for the IC50 on NaV1.5, at NaV1.6 and against NaV1.1 were 9.6 µM, 0.049 µM and 4.1 µM, respectively.

For the compound `CCN(c1cc(F)c(S(=O)(=O)Nc2cscn2)cc1C)[C@H]1CCN(Cc2ccccc2)C1` [Example 312, (S)-4-((1-benzylpyrrolidin-3-yl)(ethyl)amino)-2-fluoro-5-methyl-N-(thiazol-4-yl)benzenesulfonamide 2,2,2-trifluoroacetate], the IC50 at NaV1.5 worked out at 6.45 µM; on NaV1.6, 2.77 µM; on NaV1.1, 10.2 µM.
